Measured values as given in PubChem BioAssay AID1259407 (Chemical Carcinogenesis Research Information System (CCRIS), 2018).
Activity calls are given as the source filed them. How the calls were made is not given here.

Test system: CCRIS mutagenicity, Ames/micronucleus/aberration tests
Experiment: CCRIS mutagenicity studies
Details: Test System: AMES SALMONELLA TYPHIMURIUM, Method: PREINCUBATION
[1] = Strain/Indicator: TA98, Metabolic Activation: NONE
[2] = Strain/Indicator: TA100, Metabolic Activation: NONE

Measured: mutagenic call

c1ccc(CSCc2ccccc2)cc1
inactive: Strain/Indicator: TA97, Metabolic Activation: HAMSTER, LIVER, S-9, AROCLOR 1254 (10%) inactive; negative | Strain/Indicator: TA97, Metabolic Activation: HAMSTER, LIVER, S-9, AROCLOR 1254 (30%) inactive; negative | Strain/Indicator: TA97, Metabolic Activation: NONE inactive; negative | Strain/Indicator: TA97, Metabolic Activation: RAT, LIVER, S-9, AROCLOR 1254 (10%) inactive; negative | Strain/Indicator: TA97, Metabolic Activation: RAT, LIVER, S-9, AROCLOR 1254 (30%) inactive; negative | Strain/Indicator: TA98, Metabolic Activation: HAMSTER, LIVER, S-9, AROCLOR 1254 (10%) inactive; negative | Strain/Indicator: TA98, Metabolic Activation: HAMSTER, LIVER, S-9, AROCLOR 1254 (30%) inactive; negative | [1] inactive; negative | Strain/Indicator: TA98, Metabolic Activation: RAT, LIVER, S-9, AROCLOR 1254 (10%) inactive; negative | Strain/Indicator: TA98, Metabolic Activation: RAT, LIVER, S-9, AROCLOR 1254 (30%) inactive; negative | Strain/Indicator: TA100, Metabolic Activation: HAMSTER, LIVER, S-9, AROCLOR 1254 (10%) inactive; negative | Strain/Indicator: TA100, Metabolic Activation: HAMSTER, LIVER, S-9, AROCLOR 1254 (30%) inactive; negative | [2] inactive; negative | Strain/Indicator: TA100, Metabolic Activation: RAT, LIVER, S-9, AROCLOR 1254 (10%) inactive; negative | Strain/Indicator: TA100, Metabolic Activation: RAT, LIVER, S-9, AROCLOR 1254 (30%) inactive; negative | Strain/Indicator: TA1535, Metabolic Activation: HAMSTER, LIVER, S-9, AROCLOR 1254 (10%) inactive; negative | Strain/Indicator: TA1535, Metabolic Activation: HAMSTER, LIVER, S-9, AROCLOR 1254 (30%) inactive; negative | Strain/Indicator: TA1535, Metabolic Activation: NONE inactive; negative | Strain/Indicator: TA1535, Metabolic Activation: RAT, LIVER, S-9, AROCLOR 1254 (10%) inactive; negative | Strain/Indicator: TA1535, Metabolic Activation: RAT, LIVER, S-9, AROCLOR 1254 (30%) inactive; negative

Cc1c2ccccc2c(C)c2c3c(ccc12)C(=O)C(=O)C=C3
inactive: Strain/Indicator: TA97A, Metabolic Activation: NONE inactive; negative | [1] inactive; negative | [2] inactive; negative | Strain/Indicator: TA102, Metabolic Activation: NONE inactive; negative | Strain/Indicator: TA104, Metabolic Activation: NONE inactive; negative
